Target: T1, CASP7 (Homo sapiens, UniProt P55210)
T1 construct: human CASP7 cDNA in pET28a, C-terminal 6-His tag, E. coli BL21(DE3), Ni-NTA purified; active processed form, MW 70 kDa hetero-tetramer (p19/p12)
T1 sequence (P55210 24-198): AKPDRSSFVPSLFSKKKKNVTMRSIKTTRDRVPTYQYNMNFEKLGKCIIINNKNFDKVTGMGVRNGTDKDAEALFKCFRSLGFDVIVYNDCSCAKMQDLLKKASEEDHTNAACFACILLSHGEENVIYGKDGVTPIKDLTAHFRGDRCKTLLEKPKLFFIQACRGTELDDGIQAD
T1 sequence (P55210 207-303): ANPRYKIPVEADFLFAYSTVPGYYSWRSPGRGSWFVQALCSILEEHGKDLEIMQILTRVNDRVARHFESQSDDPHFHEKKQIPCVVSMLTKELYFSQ
Experiment: SPR (BIAcore), His-tagged CASP7 immobilised on NiNTA chip
Format: binding
Details: allosteric site near Cys246/Asp93 (proposed), reversible; 2.5, 5 or 10 μM injected

COc1cc2c(-c3ccc(O)cc3)nc3c(c(C)nn3-c3ccccc3)c2cc1OC [compound 643943, 643943]
Kd: 3.1 µM

Reference: PMC12177060, “Blocking XIAP:CASP7-p19 selectively induces apoptosis of CASP3/DR malignancies by a novel reversible small molecule” (Cell Death & Disease, 2025)
